Measured values from PubChem BioAssay (NCI).
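Step 1: Grow cells in 96-well plates. Step 2: Expose to compound for 48 hours at 5 concentrations. Step 3: Interpolate endpoints linearly; if unreached, use highest concentration. At the TGI there is no net growth.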

Experiments:
Experiment in all cases: NCI-60 cell line screen, 48 h
CCRF-CEM leukemia = test system: CCRF-CEM leukemia
RPMI-8226 leukemia = test system: RPMI-8226 leukemia
MALME-3M melanoma = test system: MALME-3M melanoma
RXF 393 renal = test system: RXF 393 renal
OVCAR-3 ovarian = test system: OVCAR-3 ovarian
HL-60(TB) leukemia = test system: HL-60(TB) leukemia
NCI-H522 lung = test system: NCI-H522 lung
OVCAR-8 ovarian = test system: OVCAR-8 ovarian
786-0 renal = test system: 786-0 renal
LXFL 529 NSCLC = test system: LXFL 529 NSCLC
UACC-257 melanoma = test system: UACC-257 melanoma
A549 NSCLC = test system: A549 NSCLC
A498 renal = test system: A498 renal
KM12 colon = test system: KM12 colon
CAKI-1 renal = test system: CAKI-1 renal
NCI-H23 lung = test system: NCI-H23 lung
M14 melanoma = test system: M14 melanoma
TK-10 renal = test system: TK-10 renal
UO-31 renal = test system: UO-31 renal
HOP-62 NSCLC = test system: HOP-62 NSCLC
SNB-75 CNS = test system: SNB-75 CNS
M19-MEL melanoma = test system: M19-MEL melanoma
SF-268 CNS = test system: SF-268 CNS
OVCAR-4 ovarian = test system: OVCAR-4 ovarian
DMS 273 small cell lung = test system: DMS 273 small cell lung
LOX IMVI melanoma = test system: LOX IMVI melanoma
SNB-19 CNS = test system: SNB-19 CNS
SF-295 CNS = test system: SF-295 CNS
SN12C renal = test system: SN12C renal
SK-MEL-5 melanoma = test system: SK-MEL-5 melanoma
HT29 colon = test system: HT29 colon
HOP-92 NSCLC = test system: HOP-92 NSCLC
XF 498 CNS = test system: XF 498 CNS
U251 CNS = test system: U251 CNS
SK-MEL-28 melanoma = test system: SK-MEL-28 melanoma
ACHN renal = test system: ACHN renal
NCI-H460 lung = test system: NCI-H460 lung
MOLT-4 leukemia = test system: MOLT-4 leukemia
K-562 leukemia = test system: K-562 leukemia
SF-539 CNS = test system: SF-539 CNS
SK-MEL-2 melanoma = test system: SK-MEL-2 melanoma
SK-OV-3 ovarian = test system: SK-OV-3 ovarian
KM20L2 colon = test system: KM20L2 colon
HCT-15 colon = test system: HCT-15 colon
COLO 205 colon = test system: COLO 205 colon
IGROV1 ovarian = test system: IGROV1 ovarian
HOP-18 NSCLC = test system: HOP-18 NSCLC
EKVX NSCLC = test system: EKVX NSCLC
RXF-631 renal = test system: RXF-631 renal
OVCAR-5 ovarian = test system: OVCAR-5 ovarian
DMS 114 small cell lung = test system: DMS 114 small cell lung
SW-620 colon = test system: SW-620 colon
UACC-62 melanoma = test system: UACC-62 melanoma
SR leukemia = test system: SR leukemia
NCI-H226 lung = test system: NCI-H226 lung
DLD-1 colon = test system: DLD-1 colon
HCT-116 colon = test system: HCT-116 colon
HCC-2998 colon = test system: HCC-2998 colon

Measured: TGI

CN1c2ccccc2NC(CC(=O)O)C2CC=CN21 (centres undefined)
> 100 µM: CCRF-CEM leukemia | RPMI-8226 leukemia | MALME-3M melanoma | RXF 393 renal | OVCAR-3 ovarian | HL-60(TB) leukemia | NCI-H522 lung | OVCAR-8 ovarian | 786-0 renal | LXFL 529 NSCLC | UACC-257 melanoma | A549 NSCLC | A498 renal | KM12 colon | CAKI-1 renal | NCI-H23 lung | M14 melanoma | TK-10 renal | UO-31 renal | HOP-62 NSCLC | SNB-75 CNS | M19-MEL melanoma | SF-268 CNS | OVCAR-4 ovarian | DMS 273 small cell lung | LOX IMVI melanoma | SNB-19 CNS | SF-295 CNS | SN12C renal | SK-MEL-5 melanoma | HT29 colon | HOP-92 NSCLC | XF 498 CNS | U251 CNS | SK-MEL-28 melanoma | ACHN renal | NCI-H460 lung | MOLT-4 leukemia | K-562 leukemia | SF-539 CNS | SK-MEL-2 melanoma | SK-OV-3 ovarian | KM20L2 colon | HCT-15 colon | COLO 205 colon | IGROV1 ovarian | HOP-18 NSCLC | EKVX NSCLC | RXF-631 renal | OVCAR-5 ovarian | DMS 114 small cell lung | SW-620 colon | UACC-62 melanoma

O=C(O)C1=CN=C(C(=O)O)NN1
> 100 µM: CCRF-CEM leukemia | RPMI-8226 leukemia | MALME-3M melanoma | RXF 393 renal | OVCAR-3 ovarian | HL-60(TB) leukemia | NCI-H522 lung | OVCAR-8 ovarian | 786-0 renal | LXFL 529 NSCLC | UACC-257 melanoma | A549 NSCLC | KM12 colon | CAKI-1 renal | NCI-H23 lung | M14 melanoma | TK-10 renal | UO-31 renal | SR leukemia | HOP-62 NSCLC | SNB-75 CNS | NCI-H226 lung | M19-MEL melanoma | SF-268 CNS | OVCAR-4 ovarian | SNB-19 CNS | SF-295 CNS | SN12C renal | SK-MEL-5 melanoma | HT29 colon | HOP-92 NSCLC | XF 498 CNS | U251 CNS | DLD-1 colon | SK-MEL-28 melanoma | ACHN renal | HCT-116 colon | NCI-H460 lung | MOLT-4 leukemia | K-562 leukemia | SF-539 CNS | SK-MEL-2 melanoma | SK-OV-3 ovarian | KM20L2 colon | HCT-15 colon | COLO 205 colon | IGROV1 ovarian | HOP-18 NSCLC | EKVX NSCLC | RXF-631 renal | DMS 114 small cell lung | SW-620 colon | UACC-62 melanoma

Cc1nc2sccn2c1C(=O)N/N=C1\SCC(=O)N1C
> 100 µM: CCRF-CEM leukemia | RPMI-8226 leukemia | MALME-3M melanoma | RXF 393 renal | OVCAR-3 ovarian | HL-60(TB) leukemia | NCI-H522 lung | OVCAR-8 ovarian | 786-0 renal | LXFL 529 NSCLC | UACC-257 melanoma | A549 NSCLC | KM12 colon | CAKI-1 renal | NCI-H23 lung | TK-10 renal | SR leukemia | HCC-2998 colon | HOP-62 NSCLC | NCI-H226 lung | M19-MEL melanoma | SF-268 CNS | DMS 273 small cell lung | LOX IMVI melanoma | SNB-19 CNS | SF-295 CNS | SN12C renal | SK-MEL-5 melanoma | HT29 colon | HOP-92 NSCLC | XF 498 CNS | U251 CNS | DLD-1 colon | SK-MEL-28 melanoma | ACHN renal | HCT-116 colon | NCI-H460 lung | MOLT-4 leukemia | K-562 leukemia | SF-539 CNS | SK-MEL-2 melanoma | SK-OV-3 ovarian | KM20L2 colon | HCT-15 colon | COLO 205 colon | IGROV1 ovarian | HOP-18 NSCLC | EKVX NSCLC | RXF-631 renal | OVCAR-5 ovarian | DMS 114 small cell lung | SW-620 colon | UACC-62 melanoma
